Source: PMC7794297

Target: glucose oxidase (GOx) (Aspergillus niger, UniProt P13006)
Experiment: GOx activity assay, glucose oxidase-horseradish peroxidase coupled system with o-dianisidine;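 on GOx activity: GOx activity followed by o-dianisidine absorbance at 500 nm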
Type: biochemical
Set-up: purchased Sigma Aldrich
Settings: for 1/Vo: Lineweaver-Burk

glucose oxidase (GOx), sequence (P13006 17-605): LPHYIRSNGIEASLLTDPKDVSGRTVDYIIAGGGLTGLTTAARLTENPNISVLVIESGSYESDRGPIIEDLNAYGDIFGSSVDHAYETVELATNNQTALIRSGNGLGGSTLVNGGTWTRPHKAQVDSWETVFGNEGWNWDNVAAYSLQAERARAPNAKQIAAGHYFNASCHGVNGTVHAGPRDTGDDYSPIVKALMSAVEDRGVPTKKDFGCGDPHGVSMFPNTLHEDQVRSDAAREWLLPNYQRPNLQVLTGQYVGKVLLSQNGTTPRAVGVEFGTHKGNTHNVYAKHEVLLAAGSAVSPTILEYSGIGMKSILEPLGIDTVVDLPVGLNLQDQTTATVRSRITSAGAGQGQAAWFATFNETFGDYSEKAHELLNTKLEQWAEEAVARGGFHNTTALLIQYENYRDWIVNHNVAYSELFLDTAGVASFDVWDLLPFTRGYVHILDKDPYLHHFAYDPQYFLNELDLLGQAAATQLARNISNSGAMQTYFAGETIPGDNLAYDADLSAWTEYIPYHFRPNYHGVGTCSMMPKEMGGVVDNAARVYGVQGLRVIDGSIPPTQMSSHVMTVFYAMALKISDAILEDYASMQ

In the case of c1ccc(SSc2ccccc2)cc1 [(4)2], the “GOx Activity” value (IC50 data, inhibitor 1.4 nM, glucose 10 mM) is reported as 0.07285 min⁻¹, the “GOx Activity” value (IC50 data, inhibitor 3.5 nM, glucose 10 mM) is reported as 0.0762 min⁻¹ and the “GOx Activity” value (IC50 data, inhibitor 7.0 nM, glucose 10 mM) is reported as 0.0665 min⁻¹. For the same molecule, the “GOx Activity” value (IC50 data, inhibitor 14.0 nM, glucose 10 mM) was 0.0785 min⁻¹, the “GOx Activity” value (IC50 data, inhibitor 70.0 nM, glucose 10 mM) was 0.0871 min⁻¹ and the “GOx Activity” value (IC50 data, inhibitor 140.0 nM, glucose 10 mM) was 0.08235 min⁻¹. The “GOx Activity” value (IC50 data, inhibitor 700.0 nM, glucose 10 mM) was 0.0656 min⁻¹, the “GOx Activity” value (IC50 data, inhibitor 1400.0 nM, glucose 10 mM) was 0.0557 min⁻¹ and the “GOx Activity” value (IC50 data, inhibitor 7000.0 nM, glucose 10 mM) was 0.0417 min⁻¹. The “GOx Activity” value (IC50 data, inhibitor 140000.0 nM, glucose 10 mM) was 0.0376 min⁻¹, the “GOx Activity” value (Ki data, inhibitor 7,0·10^-7 M, [Glucose] 0.0002 M) was 0.0019 min⁻¹ and the “GOx Activity” value (Ki data, inhibitor 7,0·10^-7 M, [Glucose] 0.0007 M) was 0.0067 min⁻¹. The “GOx Activity” value (Ki data, inhibitor 7,0·10^-7 M, [Glucose] 0.0014 M) was 0.01145 min⁻¹, the “GOx Activity” value (Ki data, inhibitor 7,0·10^-7 M, [Glucose] 0.0028 M) was 0.02218 min⁻¹ and the “GOx Activity” value (Ki data, inhibitor 7,0·10^-7 M, [Glucose] 0.004 M) was 0.02548 min⁻¹. For the same molecule, the “GOx Activity” value (Ki data, inhibitor 7·10^-8 M, [Glucose] 0.0002 M) was 0.0021 min⁻¹, the “GOx Activity” value (Ki data, inhibitor 7·10^-8 M, [Glucose] 0.0007 M) was 0.01063 min⁻¹ and the “GOx Activity” value (Ki data, inhibitor 7·10^-8 M, [Glucose] 0.0014 M) was 0.01978 min⁻¹. The “GOx Activity” value (Ki data, inhibitor 7·10^-8 M, [Glucose] 0.0028 M) was 0.03193 min⁻¹, the “GOx Activity” value (Ki data, inhibitor 7·10^-8 M, [Glucose] 0.004 M) was 0.0385 min⁻¹ and the “GOx Activity” value (Ki data, inhibitor 14·10^-7 M, [Glucose] 0.0002 M) was 0.00175 min⁻¹. The “GOx Activity” value (Ki data, inhibitor 14·10^-7 M, [Glucose] 0.0007 M) was 0.006225 min⁻¹, the “GOx Activity” value (Ki data, inhibitor 14·10^-7 M, [Glucose] 0.0014 M) was 0.013 min⁻¹ and the “GOx Activity” value (Ki data, inhibitor 14·10^-7 M, [Glucose] 0.0028 M) was 0.01805 min⁻¹. The “GOx Activity” value (Ki data, inhibitor 14·10^-7 M, [Glucose] 0.004 M) was 0.02392 min⁻¹, the “GOx Activity” value (Ki data, inhibitor 14·10^-8 M, [Glucose] 0.0002 M) was 0.001875 min⁻¹ and the “GOx Activity” value (Ki data, inhibitor 14·10^-8 M, [Glucose] 0.0007 M) was 0.008475 min⁻¹. For the same molecule, the “GOx Activity” value (Ki data, inhibitor 14·10^-8 M, [Glucose] 0.0014 M) was 0.0135 min⁻¹, the “GOx Activity” value (Ki data, inhibitor 14·10^-8 M, [Glucose] 0.0028 M) was 0.0304 min⁻¹ and the “GOx Activity” value (Ki data, inhibitor 14·10^-8 M, [Glucose] 0.004 M) was 0.0395 min⁻¹. For the same molecule, the 1/Vo (inhibitor 0,7 µM, 1/[glucose] 250 M-1) was 41.8673 min, the 1/Vo (inhibitor 0,7 µM, 1/[glucose] 357 M-1) was 59.4498 min and the 1/Vo (inhibitor 0,7 µM, 1/[glucose] 714 M-1) was 110.461 min. For the same molecule, the 1/Vo (inhibitor 0,7 µM, 1/[glucose] 1430 M-1) was 185.984 min, the 1/Vo (inhibitor 0,7 µM, 1/[glucose] 5000 M-1) was 603.288 min and the 1/Vo (inhibitor 1,4 µM, 1/[glucose] 250 M-1) was 56.7644 min. The 1/Vo (inhibitor 1,4 µM, 1/[glucose] 357 M-1) was 75.4986 min, the 1/Vo (inhibitor 1,4 µM, 1/[glucose] 714 M-1) was 81.9727 min and the 1/Vo (inhibitor 1,4 µM, 1/[glucose] 1430 M-1) was 178.284 min. The 1/Vo (inhibitor 1,4 µM, 1/[glucose] 5000 M-1) was 687.292 min, the “Inhibitor Type” value (Lineweaver–Burk plots) was “non-competitive” and the IC50 ([Glucose] 10 mM, 37 °C, sodium acetate buffer pH 5.1) was 1800 ± 100 nM. It also gave a Ki (non-competitive inhibition model, 37 °C, sodium acetate buffer pH 5.1) of 1700 ± 200 nM.
